Results published in the NIST ThermoML archive (doi:10.1021/je0501991).
± gives the expanded uncertainty stated by the source.

Assays:
[1] = excess molar enthalpy (molar enthalpy of mixing); xn = mol fraction of the nth substance listed; conditions: 308.15 K, 101.33 kPa, Liquid
[2] = refractive index (Na D-line) (dimensionless); xn = mol fraction of the nth substance listed; conditions: 308.15 K, 101.33 kPa, Liquid, Standard Abbe refractometry
[3] = xn = mol fraction of the nth substance listed; conditions: 308.15 K, 101.33 kPa, Liquid
[4] = molar heat capacity at constant pressure; xn = mol fraction of the nth substance listed; conditions: 101.33 kPa, Liquid

OCc1ccccc1 [benzenemethanol] + C[S+](C)[O-]
Conditions	excess molar enthalpy [kcal/mol]	mass density [kg/m3]	refractive index	viscosity [mPa·s]
[1], x2 = 0.0571	-0.114 ± 0.00215	–	–	–
[1], x2 = 0.108	-0.194 ± 0.00359	–	–	–
[1], x2 = 0.1537	-0.249 ± 0.00454	–	–	–
[1], x2 = 0.195	-0.291 ± 0.00526	–	–	–
[1], x2 = 0.2666	-0.332 ± 0.00598	–	–	–
[1], x2 = 0.3264	-0.358 ± 0.00645	–	–	–
[1], x2 = 0.4209	-0.358 ± 0.00645	–	–	–
[1], x2 = 0.492	-0.34 ± 0.00621	–	–	–
[1], x2 = 0.5924	-0.304 ± 0.0055	–	–	–
[1], x2 = 0.6856	-0.247 ± 0.00454	–	–	–
[1], x2 = 0.744	-0.201 ± 0.00382	–	–	–
[1], x2 = 0.8135	-0.147 ± 0.00287	–	–	–
[1], x2 = 0.8532	-0.118 ± 0.00239	–	–	–
[1], x2 = 0.8971	-0.0825 ± 0.00167	–	–	–
[1], x2 = 0.9208	-0.0614 ± 0.00143	–	–	–
[1], x2 = 0.9457	-0.0392 ± 0.000956	–	–	–
[1], x2 = 0.9721	-0.021 ± 0.000717	–	–	–
[2], x2 = 0.0641	–	–	1.5328 ± 0.0007	–
[2], x2 = 0.1255	–	–	1.5297 ± 0.0007	–
[2], x2 = 0.2283	–	–	1.5252 ± 0.0007	–
[2], x2 = 0.3275	–	–	1.5204 ± 0.0007	–
[2], x2 = 0.4152	–	–	1.5157 ± 0.0007	–
[2], x2 = 0.5117	–	–	1.5099 ± 0.0007	–
[2], x2 = 0.5942	–	–	1.5048 ± 0.0007	–
[2], x2 = 0.6646	–	–	1.4998 ± 0.0007	–
[2], x2 = 0.7406	–	–	1.4946 ± 0.0007	–
[2], x2 = 0.8125	–	–	1.4891 ± 0.0007	–
[2], x2 = 0.8745	–	–	1.4838 ± 0.0007	–
[2], x2 = 0.9388	–	–	1.4785 ± 0.0007	–
[3], x2 = 0.0641	–	1037.17 ± 0.26	–	3.957 ± 0.06
[3], x2 = 0.1255	–	1040.32 ± 0.27	–	3.787 ± 0.057
[3], x2 = 0.2283	–	1045.4 ± 0.27	–	3.49 ± 0.053
[3], x2 = 0.3275	–	1050.05 ± 0.28	–	3.201 ± 0.048
[3], x2 = 0.4152	–	1054.07 ± 0.29	–	2.949 ± 0.044
[3], x2 = 0.5117	–	1058.52 ± 0.3	–	2.686 ± 0.04
[3], x2 = 0.5942	–	1062.41 ± 0.3	–	2.477 ± 0.037
[3], x2 = 0.6646	–	1065.87 ± 0.31	–	2.306 ± 0.035
[3], x2 = 0.7406	–	1069.8 ± 0.31	–	2.134 ± 0.032
[3], x2 = 0.8125	–	1073.74 ± 0.32	–	1.988 ± 0.03
[3], x2 = 0.8745	–	1077.57 ± 0.33	–	1.858 ± 0.028
[3], x2 = 0.9388	–	1081.3 ± 0.33	–	1.748 ± 0.026

molar heat capacity at constant pressure [J/K/mol], [4]
Conditions	298.15 K	308.15 K	318.15 K
x2 = 0	200.4 ± 16	203.9 ± 16	207.2 ± 17
x2 = 0.08706	196.4 ± 16	201.5 ± 16	206.4 ± 16
x2 = 0.1439	189.3 ± 15	193.7 ± 16	198.6 ± 16
x2 = 0.2708	168.3 ± 14	172.9 ± 14	177 ± 14
x2 = 0.3817	167 ± 13	170.3 ± 14	174.1 ± 14
x2 = 0.4964	162.3 ± 13	164.4 ± 13	166.7 ± 13
x2 = 0.5422	160.1 ± 13	162.4 ± 13	164.9 ± 13
x2 = 0.5966	159.3 ± 13	161.5 ± 13	163.6 ± 13
x2 = 0.6863	146.6 ± 12	149.1 ± 12	150.8 ± 12
x2 = 0.7711	146.9 ± 12	148.1 ± 12	149.8 ± 12
x2 = 0.8577	149.7 ± 12	151.2 ± 12	152.5 ± 12
x2 = 0.9237	149 ± 12	150.2 ± 12	151.4 ± 12
x2 = 0.9508	146.4 ± 12	147.6 ± 12	148.8 ± 12
